In US20250332300A1 (priority 2024, published 2025):
Where a name gives a salt, the structure may show the parent alone. Read-outs that look alike come from different tables or passages of the source. Starred links: 1 amine or outer side, 2 acyl side, 3 side chain; linkers in the order of their positions; H or OH if unused. Positions of bridges follow the written chain, without caps; N, C: chain ends. Non-standard residues stand in square brackets, D forms with d. Residues, ends and D or L forms follow the SMILES beside them. Trp(5-OH) = N[C@@H](Cc1c[nH]c2ccc(O)cc12)C(=O)O; NMePhe(4-F) = CN[C@@H](Cc1ccc(F)cc1)C(=O)O; NMehPhe = CN[C@@H](CCc1ccccc1)C(=O)O; X3 = NC[C@H](CCC(=O)[*:2])C(=O)[*:1]; NMeE = CN[C@@H](CCC(=O)O)C(=O)O; Aad = N[C@@H](CCCC(=O)O)C(=O)O; Gly(cPr) = N[C@H](C(=O)O)C1CC1; NMeDap = CN[C@@H](CN)C(=O)O; NMeS = CN[C@@H](CO)C(=O)O; Dap = NC[C@H](N)C(=O)O

Columns and labels:
Type in all cases: binding
human HER2 (23-652) [1] = target: T1, human HER2 (23-652) (Homo sapiens, UniProt P04626); assay: Surface plasmon resonance (SPR) for assessment of peptide affinity, human HER2; design: towards human HER2 (23-652) and mouse HER2 (23-653); made in house
Outline: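 Binding kinetics fitted from sensorgrams with 280 s peptide association then 3000 s dissociation (30 uL/min), using HER2 (23-652) either directly immobilized (SA/CM5) or anti-Fc-captured; 3 M magnesium chloride used for regeneration.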

mouse HER2 (23-653) [2] = target: T2, mouse HER2 (23-653) (Mus musculus, UniProt P70424); assay: Surface plasmon resonance (SPR) for assessment of peptide affinity, mouse HER2; design: mouse HER2 (23-653) using a Cy5 labeled peptide as a probe; made in house
Description: Each protein was immobilized either onto a SA sensorchip (Cytiva, BR-1005-31) or CM5 sensorchip (Cytiva, BR-1005-30) to a density of 800-2000 RU.

human HER2 (23-652) [3] = target: T1, human HER2 (23-652); assay: TR-FRET competition assay for peptide potency, human HER2; design: towards human HER2 (23-652) and mouse HER2 (23-653); made in house; host or cells: mammalian cells
mouse HER2 (23-653) [4] = target: T2, mouse HER2 (23-653); assay: TR-FRET competition assay for peptide potency, mouse HER2; design: mouse HER2 (23-653) using a Cy5 labeled peptide as a probe; made in house; host or cells: mammalian cells
[5] = huHER2 TR-FRET IC50, TR-FRET competition with Cy5 labeled peptide probe, 0.1 nM human HER2, 24 h incubation
[6] = moHER2 TR-FRET IC50, TR-FRET competition with Cy5 labeled peptide probe, 0.1 nM mouse HER2, 24 h incubation
[7] = SPR, mouse HER2 extracellular domain, 25° C., 1:1 binding model, read-out: moHER2-SPR-ONC KD
[8] = TR-FRET competition with Cy5 labeled peptide probe, 0.1 nM mouse HER2, 24 h incubation, read-out: moHER2 TR-FRET IC50

Row | Structure (SMILES) | Kd (human HER2 (23-652) [1]) | Kd (mouse HER2 (23-653) [2]) | IC50 (human HER2 (23-652) [3]; [5]) | IC50 (human HER2 (23-652) [3]; huHER2 TR-FRET IC50, recalculated value achieved after further repetition, value in parentheses (**): recalculated after further repetition) | IC50 (mouse HER2 (23-653) [4]; [6]) | IC50 (mouse HER2 (23-653) [4]; moHER2 TR-FRET IC50, recalculated value achieved after further repetition, value in parentheses (**): recalculated after further repetition) | Kd (human HER2 (23-652) [1]; SPR, human HER2 extracellular domain, 25° C., 1:1 binding model, read-out: huHER2-SPR-ONC KD) | Kd (mouse HER2 (23-653) [2]; [7]) | IC50 (human HER2 (23-652) [3]; read-out: huHER2 TR-FRET IC50) | IC50 (mouse HER2 (23-653) [4]; [8])
1 | CN1C(=O)[C@H](CO)NC(=O)[C@H](Cc2ccc(O)cc2)NC(=O)[C@@H](N)CNC(=O)CC[C@@H](C(=O)N(C)[C@@H](Cc2ccc(F)cc2)C(N)=O)N(C)C(=O)[C@H](C2CC2)NC(=O)[C@H](Cc2c[nH]c3ccccc23)NC(=O)[C@H](Cc2c[nH]c3ccc(O)cc23)NC(=O)[C@H](CO)N(C)C(=O)[C@@H]1CCc1ccccc1 [Example A34, (3S,6S,9S,12S,15S,18S,21S,24S,30S)-6-((1H-indol-3-yl)methyl)-24-amino-N-((S)-1-amino-3-(4-fluorophenyl)-1-oxopropan-2-yl)-3-cyclopropyl-9-((5-hydroxy-1H-indol-3-yl)methyl)-21-(4-hydroxybenzyl)-12,18-bis(hydroxymethyl)-N,1,13,16-tetramethyl-2,5,8,11,14,17,20,23,27-nonaoxo-15-phenethyl-1,4,7,10,13,16,19,22,26-nonaazacyclotriacontane-30-carboxamide TFA salt] (H-[Dap]YS[NMehPhe][NMeS][Trp(5-OH)]W[Gly(cPr)][NMeE][NMePhe(4-F)]-NH2; lactam 1-9) | 68 nM | 64 nM | 158 nM | 118 nM | 296 nM | 175 nM | – | – | – | –
2 | CN1C(=O)[C@H](CO)NC(=O)[C@H](Cc2ccc(O)cc2)NC(=O)[C@@H](N)CCC(=O)NC[C@@H](C(=O)N(C)[C@@H](Cc2ccc(F)cc2)C(N)=O)N(C)C(=O)[C@H](C2CC2)NC(=O)[C@H](Cc2c[nH]c3ccccc23)NC(=O)[C@H](Cc2c[nH]c3ccc(O)cc23)NC(=O)[C@H](CO)N(C)C(=O)[C@@H]1CCc1ccccc1 [Example A35, (3S,6S,9S,12S,15S,18S,21S,24S,27S)-9-((1H-indol-3-yl)methyl)-27-amino-N—((S)-1-amino-3-(4-fluorophenyl)-1-oxopropan-2-yl)-6-cyclopropyl-12-((5-hydroxy-1H-indol-3-yl)methyl)-24-(4-hydroxybenzyl)-15,21-bis(hydroxymethyl)-N,4,16,19-tetramethyl-5,8,11,14,17,20,23,26,30-nonaoxo-18-phenethyl-1,4,7,10,13,16,19,22,25-nonaazacyclotriacontane-3-carboxamide TFA 5 salt] | – | – | – | – | – | – | 37 nM | 66 nM | 53 nM | 122 nM
3 | CN1C(=O)[C@H](CO)NC(=O)[C@H](Cc2ccc(O)cc2)NC(=O)[C@@H](N)CCCC(=O)NC[C@@H](C(=O)N(C)[C@@H](Cc2ccc(F)cc2)C(N)=O)N(C)C(=O)[C@H](C2CC2)NC(=O)[C@H](Cc2c[nH]c3ccccc23)NC(=O)[C@H](Cc2c[nH]c3ccc(O)cc23)NC(=O)[C@H](CO)N(C)C(=O)[C@@H]1CCc1ccccc1 [Example A36, (3S,6S,9S,12S,15S,18S,21S,24S,27S)-9-((1H-indol-3-yl)methyl)-27-amino-N-((S)-1-amino-3-(4-fluorophenyl)-1-oxopropan-2-yl)-6-cyclopropyl-12-((5-hydroxy-1H-indol-3-yl)methyl)-24-(4-hydroxybenzyl)-15,21-bis(hydroxymethyl)-N,4,16,19-tetramethyl-5,8,11,14,17,20,23,26,31-nonaoxo-18-phenethyl-1,4,7,10,13,16,19,22,25-nonaazacyclohentriacontane-3-carboxamide TFA salt] (H-[Aad]YS[NMehPhe][NMeS][Trp(5-OH)]W[Gly(cPr)][NMeDap][NMePhe(4-F)]-NH2; lactam 1-9) | 38 nM | – | 52 nM | – | – | – | – | 34 nM | – | 102 nM
4 | CN1C(=O)[C@H](CO)NC(=O)[C@H](Cc2ccc(O)cc2)NC(=O)[C@@H](N)CC(=O)NC[C@@H](C(=O)N(C)[C@@H](Cc2ccc(F)cc2)C(N)=O)N(C)C(=O)[C@H](C2CC2)NC(=O)[C@H](Cc2c[nH]c3ccccc23)NC(=O)[C@H](Cc2c[nH]c3ccc(O)cc23)NC(=O)[C@H](CO)N(C)C(=O)[C@@H]1CCc1ccccc1 [Example A37, (3S,6S,9S,12S,15S,18S,21S,24S,27S)-9-((1H-indol-3-yl)methyl)-27-amino-N-((S)-1-amino-3-(4-fluorophenyl)-1-oxopropan-2-yl)-6-cyclopropyl-12-((5-hydroxy-1H-indol-3-yl)methyl)-24-(4-hydroxybenzyl)-15,21-bis(hydroxymethyl)-N,4,16,19-tetramethyl-5,8,11,14,17,20,23,26,29-nonaoxo-18-phenethyl-1,4,7,10,13,16,19,22,25-nonaazacyclononacosane-3-carboxamide TFA salt] (H-DYS[NMehPhe][NMeS][Trp(5-OH)]W[Gly(cPr)][NMeDap][NMePhe(4-F)]-NH2; lactam 1-9) | 452 nM | 213 nM | 810 nM | – | > 1000 nM | – | – | – | – | –
5 | CN1C(=O)[C@H](Cc2ccc(O)cc2)NC(=O)[C@@H](N)CCC(=O)NC[C@@H](C(=O)N(C)[C@@H](Cc2ccc(F)cc2)C(N)=O)N(C)C(=O)[C@H](C2CC2)NC(=O)[C@H](Cc2c[nH]c3ccccc23)NC(=O)[C@H](Cc2c[nH]c3ccc(O)cc23)NC(=O)[C@H](CO)N(C)C(=O)[C@H](CCc2ccccc2)N(C)C(=O)[C@@H]1CO [Example A38, (3S,6S,9S,12S,15S,18S,21S,24S,27S)-9-((1H-indol-3-yl)methyl)-27-amino-N-((S)-1-amino-3-(4-fluorophenyl)-1-oxopropan-2-yl)-6-cyclopropyl-12-((5-hydroxy-1H-indol-3-yl)methyl)-24-(4-hydroxybenzyl)-15,21-bis(hydroxymethyl)-N,4,16,19,22-pentamethyl-5,8,11,14,17,20,23,26,30-nonaoxo-18-phenethyl-1,4,7,10,13,16,19,22,25-nonaazacyclotriacontane-3-carboxamide TFA salt] (H-EY[NMeS][NMehPhe][NMeS][Trp(5-OH)]W[Gly(cPr)][NMeDap][NMePhe(4-F)]-NH2; lactam 1-9) | 46 nM | 67 nM | 93 nM | – | 206 nM | – | – | – | – | –
6 | CN1C(=O)[C@H](CO)NC(=O)[C@H](Cc2ccc(O)cc2)NC(=O)[C@H](CN)CCC(=O)NC[C@@H](C(=O)N(C)[C@@H](Cc2ccc(F)cc2)C(N)=O)N(C)C(=O)[C@H](C2CC2)NC(=O)[C@H](Cc2c[nH]c3ccccc23)NC(=O)[C@H](Cc2c[nH]c3ccc(O)cc23)NC(=O)[C@H](CO)N(C)C(=O)[C@@H]1CCc1ccccc1 [Example A39, (3S,6S,9S,12S,15S,18S,21S,24S,27S)-9-((1H-indol-3-yl)methyl)-N-((S)-1-amino-3-(4-fluorophenyl)-1-oxopropan-2-yl)-27-(aminomethyl)-6-cyclopropyl-12-((5-hydroxy-1H-indol-3-yl)methyl)-24-(4-hydroxybenzyl)-15,21-bis(hydroxymethyl)-N,4,16,19-tetramethyl-5,8,11,14,17,20,23,26,30-nonaoxo-18-phenethyl-1,4,7,10,13,16,19,22,25-nonaazacyclotriacontane-3-carboxamide TFA salt] (YS[NMehPhe][NMeS][Trp(5-OH)]W[Gly(cPr)][NMeDap][NMePhe(4-F)]-NH2; linker N-8 via X3) | 148 nM | 162 nM | 129 nM | – | 436 nM | – | – | – | – | –
7 | CC(=O)NCCCC[C@H]1C(=O)N[C@@H](Cc2c[nH]c3ccc(O)cc23)C(=O)N[C@@H](Cc2c[nH]c3ccccc23)C(=O)N[C@@H](C2CC2)C(=O)N(C)[C@H](C(=O)N(C)[C@@H](Cc2ccc(F)cc2)C(=O)N[C@@H](CCCCN)C(N)=O)CNC(=O)CCC[C@H](NC(C)=O)C(=O)N[C@@H](Cc2ccc(O)cc2)C(=O)N[C@@H](CO)C(=O)N(C)[C@@H](CCc2ccccc2)C(=O)N1C [Example A40, TFA salt] | < 0.1 nM | – | < 0.1 nM | – | – | – | – | < 0.1 nM | – | 0.2 nM
